Consider three compounds from US10508147B2, “Anti-nodal antibodies and methods of using same” (ANN AND ROBERT H. LURIE CHILDREN'S HOSPITAL OF CHICAGO, priority 2014, dated 2019).

“Also recorded” adds a separate entry of the source.

Test [1] relates to 3D1 mAb. Put plainly: ELISA epitope mapping and specificity assay of coated peptides probed with 3D1. Type of test: binding, mouse. Particulars: peptides coated at 1.0 μg/mL; 3D1 mAb 1.0 μg/mL. Here is the method: Residues underlying the binding between 3D1 and Nodal were investigated by epitope mapping using a set of Nodal synthetic peptides (See FIG. 9). […] Peptides were immobilized at 1 μg/mL and probed with 3D1 at […]. Data were normalized to the binding of the peptide hNODAL (44-69) wild-type (WT). […] Most interactions were established with C43, P46, V47, E49, E50. The effect of Y58 can be on the conformation of the peptide.
Peptides used for the epitope mapping and for the specificity assay of the 3D1 mAb were coated at 1.0 μg/mL diluted in PBS; 3D1 mAb, dissolved in PBS, was used as primary antibody at 1.0 μg/mL.
In general terms: ELISA stands for enzyme-linked immunosorbent assay.

Test [2] relates to endogenous Nodal. As to the kind of experiment: Western blot competition between 3D1 antigen peptide and endogenous Nodal in human embryonic stem cell lysates. Type of test: binding. Particulars: 3D1 4 μg/mL, hNodal(44-56) 10 μg/mL; H9 and H14 hESC lysates. The procedure:
Thirty micrograms of H9 and H14 human embryonic stem cell total protein lysates, obtained as previously described, were separated on a 15% SDS-PAGE gel under reducing conditions and the resolved proteins were transferred onto a PVDF membrane. 50 ng of rhNodal protein were used as positive control. A Western blotting procedure was conducted: membranes were blocked, then probed with the 3D1 alone at 4.0 μg/mL in 2.5% NFDM in TBS-T and with the 3D1 mAb at 4.0 μg/mL pre-incubated with its antigen, the hNodal(44-56) peptide at 10 μg/mL. […] Blots were developed with Enhanced Chemiluminescence Western Blot Substrate (Pierce, Rockford, Ill., USA) following the manufacturer's instructions and were acquired by using a Chemidoc XRS video densitometer (Bio-Rad, Hercules, Calif., USA).
(In general: A western blot detects proteins with antibodies after separation by electrophoresis.)

Test [3] has as its system A375SM human melanoma cell line. Put plainly: Western blot of A375SM cells treated with BRAFi (dabrafenib) or 3D1. Type of test: cell-based. Particulars: 72 hr. The procedure:
To determine the level of Nodal expression in brain, kidney, liver, pancreas, heart and skeletal muscle ready to use adult tissue extracts for Western blotting (WB) were purchased from Santa Cruz Biotechnology. For WB experiments of cell lines, whole cell lysates were prepared and quantified. SDS-PAGE gel electrophoresis and WB were performed using standard techniques. PVDF membranes were blocked in 5% non-fat milk or 5% BSA and antibodies diluted in either 5% non-fat milk or 5% bovine serum albumin overnight at 4° C., depending on the manufacturer's recommendations. Signal was detected using West Pico chemiluminescence reagent (Thermo Fisher) and exposure to x-ray film.

Test [4] concerns A375SM human metastatic melanoma cells. As to the kind of experiment: A375SM orthotopic xenograft in Nude mice. Type of test: in vivo. The procedure:
Experiments were carried out to determine the in vivo effects of 3D1 mAb on primary melanoma. To this end, 500,000 C8161 cells were injected subcutaneously in Nude mice. Palpable tumors were then injected directly with either 700 μg of total 3D1 mAb or IgG control antibody (alternate day intratumoral injection of 100 μg over 14 days). Mice were then sacrificed and subcutaneous tumors harvested and processed as previously described. To evaluate the effect of 3D1 mAb in the presence of the BRAF(V600E) mutation, a third orthotopic xenograft model was established in Nude mice via subcutaneous injection of approximately 150,000 A375SM human metastatic melanoma cells. Mice were treated IP with 3D1 mAb or IgG control, as described above, or 3 mg/kg of dabrafenib.
Four micron thick, formalin fixed, paraffin embedded tissue sections were prepared and immunohistochemistry was carried out on a Dako Plus autostainer (DAKO, Inc, Carpenteria, Calif.). Following antigen retrieval and blocking steps, sections were incubated in primary antibody for 60 mins, followed by appropriate biotinylated secondary antibody (Biocare Medical, Conrad, Calif.), and then streptavidin-horseradish peroxidase (Thermo Scientific Lab Vision). Color was developed with 3,3′-diaminobenzidine substrate (Thermo Scientific Lab Vision) and sections were counterstained with hematoxylin (Biocare Medical, LLC). As a negative control, adjacent serial sections were incubated with species appropriate irrelevant IgG (Jackson ImmunoResearch Labs) at the same concentration as primary antibodies. Similar to the lung tumor burden evaluation described above, mean percentage of positive staining±SEM was determined by 2 different observers, each calculating the ratio of positive cells/total number of cells×100 for 4 separate high power fields (63× objective) from at least 2 different mice per group.

On to “CEGECPNPVGEEFHPTNHAYIQSLLKRYQPHRVPSTC [hNodal(39-75)]”, for which the “ELISA signal for binding to 3D1” value in test [1] is listed as “bound with similar efficiency”.

PNPVGEEFHPTNH [hNodal(44-56)]: the “ELISA signal for binding to 3D1” value in test [1] is recorded as “strongest signal”. In addition, the “staining of endogenous Nodal by 3D1 after pre-incubation with the peptide” value in test [2] is “no longer detectable”.

As to `CC(C)(C)c1nc(-c2cccc(NS(=O)(=O)c3c(F)cccc3F)c2F)c(-c2ccnc(N)n2)s1` [dabrafenib], the Nodal expression entry in test [3] is “relatively unaffected; also recorded: only minimally affected”. Also, in test [3] (dabrafenib 10 nM), the “ERK1/2 activity (P-ERK1/2)” value is given as “significantly reduced”. In addition, in test [4] (IHC, N=4), the “mean percentage (±SEM) of nuclear P-Smad2” value was 68.7%±6.3%. Moreover, in test [4] (after 8 days, vs IgG control), the tumor volumes entry was “trend towards reduced tumor volumes”.
